Assay results from patent publication US6703205B2, “Apparatus and methods for correcting for variable velocity in microfluidic systems” (Caliper Technologies Corp., priority 1997, dated 2004).

Columns and labels:
[1] = target: HCV protease (Hepatitis C virus genotype 1a, UniProt P27958); experiment: On-chip continuous flow HCV protease assay with FRET depsipeptide substrate; type: biochemical; conditions: 25 mM TRIS/HCL, pH 8.5, 0.1% Triton X-100, 10 mM DTT, 1M NDSB-195
Description: HCV protease was used in a similar fluorogenic assay to LAR phosphatase; however, the peptide substrate incorporates a fluorescence resonance energy transfer (FRET) label (FIG. 18). […] The product fluorescence is proportional to the amount of cleaved substrate. The height of the product signal is proportional to the rate of enzyme turnover for that substrate concentration. The rate of fluorescence generation can be assessed as the fluorescence signal per mixing time of substrate and enzyme in the reaction channel. That mixing time is determined by the mean residence time of the fluorescent product in the reaction channel as it is electrokinetically pumped from the source of the mixing to the detector. Km was determined from the Michaelis Menton equation.
Due to the chemistry of this FRET quenching reaction, several considerations for accurate measurement of Km on the Labchip™ exist. […]
The chip was operational in that fluid was flowing for more than 12 hours of continuous electrokinetic pumping; however, the inhibition response was reproducible for seven hours. The total reagent volume consumed in the experiment can be calculated from the cross sectional area of the capillary and the total current. […] The average percent inhibition response was calculated for the first three inhibited and uninhibited signals at the start of each hour. […]

[2] = target: LAR (Homo sapiens, UniProt P10586); experiment: Cuvette / spectrophotometer LAR phosphatase assay with dFMUP; type: biochemical; conditions: same running buffer
Experimental: A least squares fit of the three straight lines: no inhibitor, 35 μM and 69 μM peptide, was performed with the constraint that they meet at a common intercept on the y axis, 1/Vmax FIG. 15. […] The kcat is 4.74 μmol/min nmol LAR. The parallel analysis performed on the spectrophotometer in the same running buffer yielded a kcat of 6 μmol/min nmol LAR. […] The same analysis performed in a cuvette experiment with 1 mg/ml BSA in the running buffer gave 167 μM peptide.
In addition to the above kinetic studies, rate as a function of substrate concentration data was collected on three separate chips in order to consider interchip reproducibility for Km analyses. The combined data were used to prepare a double reciprocal plot. […] This is in excellent agreement with cuvette experiments performed on the spectrophotometer where dFMU was detected at 360 nm in a temperature controlled cuvette at 25_C.

HCV protease, sequence (P27958 1027-1208): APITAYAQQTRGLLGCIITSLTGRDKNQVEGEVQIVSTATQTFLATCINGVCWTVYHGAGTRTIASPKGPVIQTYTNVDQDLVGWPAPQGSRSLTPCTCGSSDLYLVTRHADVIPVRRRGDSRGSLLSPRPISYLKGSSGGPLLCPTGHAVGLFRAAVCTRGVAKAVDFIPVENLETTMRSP
LAR, sequence (P10586 30-1907, species assumed): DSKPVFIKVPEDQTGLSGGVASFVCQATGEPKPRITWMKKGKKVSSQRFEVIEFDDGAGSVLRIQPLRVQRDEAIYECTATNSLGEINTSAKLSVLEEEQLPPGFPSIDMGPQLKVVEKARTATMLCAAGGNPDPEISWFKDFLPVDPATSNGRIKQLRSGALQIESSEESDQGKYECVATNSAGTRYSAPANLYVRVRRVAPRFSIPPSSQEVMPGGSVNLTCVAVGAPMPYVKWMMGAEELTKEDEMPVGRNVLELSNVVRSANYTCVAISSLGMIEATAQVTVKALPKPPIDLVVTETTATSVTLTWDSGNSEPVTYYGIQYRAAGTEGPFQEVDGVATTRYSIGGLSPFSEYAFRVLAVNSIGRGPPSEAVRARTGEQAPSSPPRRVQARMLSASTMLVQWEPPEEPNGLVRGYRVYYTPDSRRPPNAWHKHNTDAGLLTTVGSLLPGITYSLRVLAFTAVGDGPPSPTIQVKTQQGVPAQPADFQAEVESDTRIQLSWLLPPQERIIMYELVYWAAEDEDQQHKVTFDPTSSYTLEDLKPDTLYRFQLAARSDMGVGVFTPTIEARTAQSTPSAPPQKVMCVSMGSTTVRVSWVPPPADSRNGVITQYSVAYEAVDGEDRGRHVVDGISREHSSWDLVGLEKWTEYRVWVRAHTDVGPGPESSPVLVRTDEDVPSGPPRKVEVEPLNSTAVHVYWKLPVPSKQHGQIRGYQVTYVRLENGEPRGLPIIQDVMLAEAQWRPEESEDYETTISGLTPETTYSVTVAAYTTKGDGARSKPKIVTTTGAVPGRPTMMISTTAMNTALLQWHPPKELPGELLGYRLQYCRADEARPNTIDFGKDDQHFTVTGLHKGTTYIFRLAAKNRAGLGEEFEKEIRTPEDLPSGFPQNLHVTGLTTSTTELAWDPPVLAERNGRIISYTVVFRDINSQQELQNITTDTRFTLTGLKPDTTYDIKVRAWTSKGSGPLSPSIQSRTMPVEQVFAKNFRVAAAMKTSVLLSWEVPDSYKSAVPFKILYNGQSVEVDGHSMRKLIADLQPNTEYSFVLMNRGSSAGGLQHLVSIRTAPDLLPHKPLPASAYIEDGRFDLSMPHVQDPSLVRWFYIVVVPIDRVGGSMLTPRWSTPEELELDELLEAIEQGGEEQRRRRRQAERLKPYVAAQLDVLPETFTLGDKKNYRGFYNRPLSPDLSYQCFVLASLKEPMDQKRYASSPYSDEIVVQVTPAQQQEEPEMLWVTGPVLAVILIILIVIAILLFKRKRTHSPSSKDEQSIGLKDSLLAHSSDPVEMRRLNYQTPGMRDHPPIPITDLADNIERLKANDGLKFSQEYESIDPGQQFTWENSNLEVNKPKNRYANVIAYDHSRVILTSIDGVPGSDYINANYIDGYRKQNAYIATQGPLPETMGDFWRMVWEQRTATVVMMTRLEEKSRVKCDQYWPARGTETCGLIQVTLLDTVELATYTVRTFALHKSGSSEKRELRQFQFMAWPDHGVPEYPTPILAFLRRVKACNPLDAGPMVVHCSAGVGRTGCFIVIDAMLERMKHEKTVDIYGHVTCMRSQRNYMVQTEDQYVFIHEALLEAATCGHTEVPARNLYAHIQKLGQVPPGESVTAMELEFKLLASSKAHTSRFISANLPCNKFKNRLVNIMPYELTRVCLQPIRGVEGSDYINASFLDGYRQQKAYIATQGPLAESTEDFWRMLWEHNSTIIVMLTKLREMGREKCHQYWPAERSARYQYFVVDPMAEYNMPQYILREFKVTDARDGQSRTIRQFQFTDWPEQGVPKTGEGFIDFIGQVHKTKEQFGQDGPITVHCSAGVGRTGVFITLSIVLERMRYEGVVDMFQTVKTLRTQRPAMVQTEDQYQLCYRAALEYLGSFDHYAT

Compound: C/C=C1\NC(=O)[C@H]2CSSCC/C=C/[C@H](CC(=O)N[C@H](C(C)C)C(=O)N2)OC(=O)[C@H](C(C)C)NC1=O [Depsipeptide]
- Vmax [1]: 0.086 mM/s
- kcat [1]: 0.03 s⁻¹

Compound: Cc1cc(=O)oc2c(F)c(OP(=O)(O)O)c(F)cc12 [dFMUP]
- kcat [2]: 6 μmol/min nmolLAR
